# Measurements taken from paper PMC10633902, “Investigating the antimicrobial activity, cytotoxicity, and action mechanism of acylated and amidated derivatives of AurH1 antifungal peptide” (BMC Microbiology, 2023).
# Where two headings read alike, the source gives them in different places. No end group written: not given here.
# Tests used:
# [1] = test system: C. albicans; set-up: method as in PMID 31264322; settings: cited from earlier work
# [2] = test system: Candida albicans (ATCC 10,231); set-up: method as in our previous study [6]; settings: C. albicans; ref our previous study [6]; cited from earlier work
# [3] = test system: Aspergillus flavus (ATCC 24,109); set-up: method as in our previous study [6]; settings: A. flavus; ref our previous study [6]; cited from earlier work
# [4] = test system: C. albicans; assay: Killing kinetic assay (time of killing); assay type: cell-based, Candida albicans; settings: 1X MIC concentration
# [5] = test system: C. albicans; assay: Effect of salts and human serum on antimicrobial activity (MIC); assay type: cell-based, Candida albicans
# Protocol: To evaluate the effect of salts and human serum on the antimicrobial activity of the AurH1-NH2 and AurH1 peptides, their antimicrobial activity (MICs values) against C. albicans under different conditions containing salt and human serum was determined. Therefore, mid-logarithmic phase yeasts diluted to 5 × 10^5 CFU/ml in SDB were added to related media containing different concentrations of human serum (10%, 20%, and 30%) and salts (150 mM NaCl and 1mM MgCl2), and incubated at 37 °C for 24 h.
# [6] = test system: Escherichia coli (ATCC 25,922); set-up: method as in our previous study [6]; settings: E. coli; ref our previous study [6]; cited from earlier work
# [7] = test system: C. albicans; assay: Ergosterol binding assay (MIC in presence and absence of ergosterol); assay type: cell-based, Candida albicans
# Protocol: An ergosterol binding assay was performed to measure the binding potency of peptides to fungal membrane sterols. For this purpose, the ergosterol was dissolved in DMSO and Tween-20, it was heated to increase the solubility of the formed emulsion and diluted in an SDB medium at a concentration of […] and incubated at 37 °C for 1 h. After that, MIC of the AurH1, Ac-AurH1, and AurH1-NH2 peptides was measured by the micro-dilution method in the presence and absence of ergosterol in different concentrations ([…]) against C. albicans.
# [8] = test system: human red blood cells; assay type: cell-based; settings: 1 h
# Protocol: A hemolytic assay was performed to investigate the effects of peptides on human red blood cells. First, 5 ml of fresh human blood was taken from a volunteer. After that, 20% (v/v) suspension of human erythrocytes was prepared and diluted in PBS (1:20). Next, 100 µL of this blood suspension was added in triplicate to 100 µL of a 2-fold serial dilution series of the peptide in a 96‐well plate. 1% Triton-X 100 was used as a positive control to lyse 100% of RBCs, and sterile 0.9% NaCl solution was used as a negative control. Then the plates were incubated at 37 °C for 1 h and centrifuged at 3500 rpm for 10 min. Next, 100 µL of the supernatant was transferred to a new 96-well plate to measure the absorbance at 414 nm using a microplate reader (STAT FAX 2100, BioTek, Winooski, USA). Finally, the percentage of hemolysis was calculated as follows: […]
# [9] = test system: Candida glabrata (ATCC 90,030); set-up: method as in our previous study [6]; settings: C. glabrata; ref our previous study [6]; cited from earlier work
# [10] = test system: Candida krusei (ATCC 28,870); set-up: method as in our previous study [6]; settings: C. krusei; ref our previous study [6]; cited from earlier work
# [11] = test system: Staphylococcus aureus (ATCC 25,923); set-up: method as in our previous study [6]; settings: S. aureus; ref our previous study [6]; cited from earlier work
# [12] = test system: Aspergillus niger (ATCC 9142); set-up: method as in our previous study [6]; settings: A. niger; ref our previous study [6]; cited from earlier work
substance,measurement,setting,value
"WFKIIKK [AurH1, WFKIIKK]",combinatorial effect (in words),[1]; in combination with amphotericin B,synergistic effects
same,combinatorial effect (in words),[1]; in combination with fluconazole,synergistic effects
same,MBC (MFC),[2],125 µg/mL
same,MIC,[2],15.625 µg/mL
same,MIC,[3],> 1000 µg/mL
same,time to kill all C. albicans (maximum fungicidal effect),[4],24 h
same,MIC,[5]; SDB,15.6 µg/mL
same,MIC,[5]; SDB + 10% serum (human),15.6 µg/mL
same,MIC,[5]; SDB + 20% serum (human),62.5 µg/mL
same,MIC,[5]; SDB + 30% serum (human),125 µg/mL
same,MIC,[5]; SDB + MgCl2 (1 mM),15.6 µg/mL
same,MIC,[5]; SDB + NaCl (150 mM),15.6 µg/mL
same,MIC,[6],> 1000 µg/mL
same,MIC,[7]; after treatment with Ergosterol (Erg),15.6 µg/mL
same,MIC,[7]; before treatment with Ergosterol (substance alone),15.6 µg/mL
same,HC50 (concentration that lyses 50% of red blood cells),[8],"13,484 µg/ml"
same,MBC (MFC),[9],500 µg/mL
same,MIC,[9],125 µg/mL
same,MBC (MFC),[10],250 µg/mL
same,MIC,[10],31.25 µg/mL
same,MIC,[11],> 1000 µg/mL
same,MBC (MFC),[12],500 µg/mL
same,MIC,[12],125 µg/mL
